Assay [1] has as its target T1, N-type calcium channel α1B (Cav2.2), β3 and α2δ subunits (Homo sapiens, UniProt Q00975).
T1 construct: expressed in transfected cells
The experiment in a line: Functional assay, antagonism of N-type calcium channel (FDSS calcium mobilization response to KCl depolarization). The format is cell-based. The following applies: for pIC50: HEK stable cell line, 50 mM KCl depolarization, six-point concentration-response; for inhibition at 0.33 µM: 0.33 μM compound, FDSS, 50 mM KCl. The method, then: A stable cell line (HEK parent) co-expressing the α1B (Cav2.2), β3 and α2δ subunits of the N-type calcium channel subunits was used. These cells were routinely grown as monolayers in low glucose-containing Dulbecco's Modified Eagle Medium supplemented with 10% FBS, 2 mM L-glutamine, 100 I.U./mL penicillin, 100 μg/mL streptomycin, 400 μg/mL G418 and 200 μg/mL Zeocin (split ratio=1:5). Cells were maintained in 5% CO2 at 37° C. Compounds of Formula (I) were prepared as 10 mM stocks in DMSO from neat compound, if available. Otherwise, the 5 or 10 mM DMSO stock solutions provided in-house were used.
Calcium mobilization responses to KCl depolarization were evaluated by measuring the intensity of calcium-mediated fluorescent signal in the presence of BD Calcium Assay Dye (BD Biosciences, Franklin Lakes, N.J., U.S.A.), utilizing a Functional Drug Screening System (FDSS) by Hamamatsu Corporation (Bridgewater, N.J. U.S.A.).
Twenty-four hr prior to assay, cells were seeded in clear-base poly-D-lysine-coated 384-well plates (BD Biosciences) at a density of 5,000 cells per well in culture medium and grown overnight in 5% CO2 at 37° C. On the day of assay, growth media were removed, and cells were loaded with BD calcium assay dye (BD Biosciences) for 35 min at 37° C. under 5% CO2 and then for 25 min at room temp. Utilizing the FDSS, cells were exposed to representative compounds of Formula (I) at varying concentrations, and intracellular calcium was measured for 5 min prior to the addition of 50 mM KCl for an additional 3 min of measurement.
IC50 values for representative compounds of Formula (I) were determined from six-point concentration-response experiments and represent the concentration of said compound required to inhibit 50% of the maximal response. Maximal fluorescence intensity (FI) achieved upon addition of 50 mM KCl was exported from the FDSS software and further analyzed using GraphPad Prism 3.02 (Graph Pad Software Inc., San Diego, Calif., U.S.A.). Data were normalized to the maximum average counts from quadruplicate wells for each condition in the presence of 50 mM KCl and to the minimum average counts in the presence of buffer. Theoretical curves were generated using nonlinear regression curve-fitting analysis of either sigmoidal concentration-response or sigmoidal concentration-response (variable slope), and the IC50 values with the best-fit curve determined by GraphPad Prism were reported.

In another assay the target is T2, N-type calcium channel (Homo sapiens, UniProt Q00975).
T2 construct: expressed in transfected cells
T2 sequence (Q00975 whole entry): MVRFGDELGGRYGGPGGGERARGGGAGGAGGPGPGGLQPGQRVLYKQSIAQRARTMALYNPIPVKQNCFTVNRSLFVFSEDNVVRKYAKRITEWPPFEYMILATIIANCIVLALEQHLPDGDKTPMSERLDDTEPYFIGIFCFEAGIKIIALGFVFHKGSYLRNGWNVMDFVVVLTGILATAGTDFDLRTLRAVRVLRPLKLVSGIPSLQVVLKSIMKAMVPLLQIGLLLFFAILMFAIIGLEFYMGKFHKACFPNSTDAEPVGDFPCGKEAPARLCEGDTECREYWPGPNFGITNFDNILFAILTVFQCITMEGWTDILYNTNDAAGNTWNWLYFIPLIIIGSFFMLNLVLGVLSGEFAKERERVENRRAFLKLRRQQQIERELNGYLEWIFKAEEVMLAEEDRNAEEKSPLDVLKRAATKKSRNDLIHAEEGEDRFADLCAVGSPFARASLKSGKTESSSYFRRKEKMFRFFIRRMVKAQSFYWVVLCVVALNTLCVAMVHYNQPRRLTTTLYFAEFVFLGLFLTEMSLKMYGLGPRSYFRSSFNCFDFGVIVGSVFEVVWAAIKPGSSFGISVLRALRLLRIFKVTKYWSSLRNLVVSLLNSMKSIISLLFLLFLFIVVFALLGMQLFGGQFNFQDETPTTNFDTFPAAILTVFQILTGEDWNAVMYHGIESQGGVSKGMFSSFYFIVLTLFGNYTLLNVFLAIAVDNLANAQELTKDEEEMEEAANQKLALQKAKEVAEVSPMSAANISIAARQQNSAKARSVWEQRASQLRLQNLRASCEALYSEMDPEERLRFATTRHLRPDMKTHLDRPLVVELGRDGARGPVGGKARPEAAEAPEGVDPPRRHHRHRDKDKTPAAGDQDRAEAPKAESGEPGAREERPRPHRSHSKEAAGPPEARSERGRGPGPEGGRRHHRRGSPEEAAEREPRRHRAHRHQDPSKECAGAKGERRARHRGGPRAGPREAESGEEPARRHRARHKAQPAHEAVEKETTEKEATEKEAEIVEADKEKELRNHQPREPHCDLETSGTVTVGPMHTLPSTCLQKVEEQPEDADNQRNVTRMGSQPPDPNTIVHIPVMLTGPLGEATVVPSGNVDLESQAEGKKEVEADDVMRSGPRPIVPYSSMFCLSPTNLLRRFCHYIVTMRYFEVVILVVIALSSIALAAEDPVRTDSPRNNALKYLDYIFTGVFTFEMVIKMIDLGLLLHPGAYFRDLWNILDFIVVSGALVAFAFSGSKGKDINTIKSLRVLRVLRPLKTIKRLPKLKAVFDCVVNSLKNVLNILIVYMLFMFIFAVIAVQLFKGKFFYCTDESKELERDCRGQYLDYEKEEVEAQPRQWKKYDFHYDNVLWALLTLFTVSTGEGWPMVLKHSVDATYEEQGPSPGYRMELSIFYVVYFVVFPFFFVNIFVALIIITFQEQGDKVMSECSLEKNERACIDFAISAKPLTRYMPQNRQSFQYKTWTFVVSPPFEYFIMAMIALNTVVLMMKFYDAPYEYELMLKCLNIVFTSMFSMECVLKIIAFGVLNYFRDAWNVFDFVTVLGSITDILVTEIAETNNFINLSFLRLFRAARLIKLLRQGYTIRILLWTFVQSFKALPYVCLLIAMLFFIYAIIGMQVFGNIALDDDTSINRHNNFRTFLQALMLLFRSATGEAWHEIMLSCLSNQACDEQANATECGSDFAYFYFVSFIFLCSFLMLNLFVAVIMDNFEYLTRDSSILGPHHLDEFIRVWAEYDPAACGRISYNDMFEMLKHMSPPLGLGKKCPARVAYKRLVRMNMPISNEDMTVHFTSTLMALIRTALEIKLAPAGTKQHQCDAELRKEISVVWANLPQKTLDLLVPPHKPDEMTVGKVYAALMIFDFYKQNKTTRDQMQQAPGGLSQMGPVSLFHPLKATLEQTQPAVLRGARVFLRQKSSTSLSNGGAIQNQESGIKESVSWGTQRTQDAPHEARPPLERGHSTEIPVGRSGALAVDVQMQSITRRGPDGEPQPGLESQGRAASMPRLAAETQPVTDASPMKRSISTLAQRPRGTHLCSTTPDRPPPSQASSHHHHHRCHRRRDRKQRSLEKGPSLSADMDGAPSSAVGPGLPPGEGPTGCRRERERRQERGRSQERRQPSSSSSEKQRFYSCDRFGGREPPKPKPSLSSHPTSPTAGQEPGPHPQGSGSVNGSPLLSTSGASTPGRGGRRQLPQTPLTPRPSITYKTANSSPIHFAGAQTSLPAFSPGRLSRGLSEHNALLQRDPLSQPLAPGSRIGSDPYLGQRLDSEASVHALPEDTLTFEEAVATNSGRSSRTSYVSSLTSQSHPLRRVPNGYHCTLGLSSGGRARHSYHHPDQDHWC
T2 sequence (P54284 whole entry partner): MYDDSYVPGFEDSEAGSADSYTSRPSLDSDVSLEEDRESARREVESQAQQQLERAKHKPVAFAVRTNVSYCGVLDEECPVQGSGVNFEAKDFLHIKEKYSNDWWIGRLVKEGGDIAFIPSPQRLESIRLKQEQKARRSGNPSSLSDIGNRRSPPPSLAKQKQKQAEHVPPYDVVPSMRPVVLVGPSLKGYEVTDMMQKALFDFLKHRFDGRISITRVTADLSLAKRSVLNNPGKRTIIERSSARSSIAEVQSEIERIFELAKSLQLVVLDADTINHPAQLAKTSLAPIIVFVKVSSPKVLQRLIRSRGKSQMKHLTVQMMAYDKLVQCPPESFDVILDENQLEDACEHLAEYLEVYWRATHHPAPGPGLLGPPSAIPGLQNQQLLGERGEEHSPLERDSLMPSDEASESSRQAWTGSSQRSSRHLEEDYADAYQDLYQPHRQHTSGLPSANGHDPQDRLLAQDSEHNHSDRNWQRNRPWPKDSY
T2 sequence (P54289 25-956 partner limits assumed): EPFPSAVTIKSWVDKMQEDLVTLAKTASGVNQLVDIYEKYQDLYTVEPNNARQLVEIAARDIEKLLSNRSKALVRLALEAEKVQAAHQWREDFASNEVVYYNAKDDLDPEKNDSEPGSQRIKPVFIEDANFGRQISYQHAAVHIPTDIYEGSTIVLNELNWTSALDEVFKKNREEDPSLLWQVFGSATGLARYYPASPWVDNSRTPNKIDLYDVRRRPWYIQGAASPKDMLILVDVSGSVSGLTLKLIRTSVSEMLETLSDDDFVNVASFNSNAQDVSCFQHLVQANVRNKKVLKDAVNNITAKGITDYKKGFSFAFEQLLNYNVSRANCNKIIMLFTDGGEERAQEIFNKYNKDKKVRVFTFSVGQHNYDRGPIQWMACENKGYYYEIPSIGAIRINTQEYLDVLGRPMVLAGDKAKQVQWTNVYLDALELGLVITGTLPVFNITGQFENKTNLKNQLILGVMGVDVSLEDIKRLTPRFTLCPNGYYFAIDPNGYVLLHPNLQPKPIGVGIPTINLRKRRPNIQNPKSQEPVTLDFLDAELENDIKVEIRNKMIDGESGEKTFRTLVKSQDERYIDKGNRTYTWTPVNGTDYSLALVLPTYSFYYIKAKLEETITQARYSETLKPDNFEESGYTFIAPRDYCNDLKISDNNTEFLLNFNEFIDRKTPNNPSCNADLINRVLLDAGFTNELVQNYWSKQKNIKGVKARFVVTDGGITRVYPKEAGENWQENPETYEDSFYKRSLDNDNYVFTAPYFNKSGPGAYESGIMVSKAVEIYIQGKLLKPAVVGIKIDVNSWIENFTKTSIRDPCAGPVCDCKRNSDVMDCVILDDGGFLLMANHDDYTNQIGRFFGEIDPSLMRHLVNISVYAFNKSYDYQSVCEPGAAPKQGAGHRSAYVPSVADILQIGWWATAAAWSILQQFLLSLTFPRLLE
T2 sequence (P54289 957-1103 partner limits assumed): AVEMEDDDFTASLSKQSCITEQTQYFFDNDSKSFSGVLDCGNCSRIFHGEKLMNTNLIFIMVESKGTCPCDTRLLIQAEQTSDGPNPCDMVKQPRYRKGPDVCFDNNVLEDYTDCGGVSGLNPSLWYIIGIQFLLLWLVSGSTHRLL
The experiment in a line: Automated electrophysiology assay (QPatch-HT whole-cell patch clamp). In kind it is cell-based. As to the method: Cells were grown in T175 flasks to 50%-90% confluence. At the time of use, cells were enzymatically treated with Detachin (Genlantis, San Diego, Calif. USA), centrifuged, rinsed, and resuspended in 293 SFM II media (Life Technologies, Grand Island, N.Y. U.S.A.) supplemented with 25 mM HEPES (Sigma-Aldrich, St. Louis, Mo. U.S.A.) to a concentration of 2-3×10^6 cells/mL. Cells were added to the automated cell preparation station on the QPatch-HT (Sophion Biosciences, North Brunswick, N.J. U.S.A.), and following a 10- to 30-min recovery period with gentle stirring, the assay protocol was initiated. During the automated cell preparation, cells were collected, centrifuged and resuspended in an extracellular (EC) solution containing 132 mM NaCl, 1.8 mM CaCl2, 5.4 mM KCl, 0.8 mM MgCl2, 10 mM glucose, and 10 mM HEPES (pH=7.4), adjusted with sucrose to approximately 315 m0sm. The QPlate was primed with an intracellular solution containing 135 mM CsCl, 10 mM EGTA, 4 MgATP, 0.3 NaGTP, and 20 mM HEPES (pH=7.2), adjusted to approximately 290 m0sm with deionized water and the EC solution. Cells were added to the prepared QPlate wells by robotic pipettes of the QPatch-HT.
For cells determined to be in stable whole-cell patch clamp, the EC solution was replaced with a barium (Ba)/triethylammonium (TEA) solution containing 140 mM TEA-Cl, 10 mM BaCl2, 0.8 mM MgCl2, 10 mM glucose and 10 mM HEPES (pH=7.4). High (40 mM) BaCl2 concentrations were made with adjustments to TEA-C1 (90 mM) to maintain the osmolarity. From a resting potential of −80 mV, a train of depolarizing pulses (15 pulses at 5 Hz, +20 mV) was delivered to the cell once every 30 sec for eight trains (4 min total), and the resulting currents were measured during a control period (no compound). This protocol was repeated for each subsequent addition of control buffer with or without compound (three periods total, each with four trains). The current generated in the 1st and 15th pulses of the last train of each period in the presence of each drug concentration was normalized to the current generated during the control period at the respective pulses (representing low- and high-frequency stimulation, respectively). Data from both the second and third drug application periods were analyzed for each cell. A final addition of Ba/TEA solution containing 60-100 μM CdCl2 was made to block all N-type current and to “zero” the currents for each cell. All buffer/compound additions were made using a “spitting” feature of the QPatch-HT, which added three repetitions of 5 μL solution at the beginning of each recording period.
To examine closed-state inactivation, cells were subjected to a channel-activating 50-msec depolarizing step pulse from −80 to +10 mV, followed by a 5-sec nonactivating step to voltages ranging from −130 to −60 mV in 10 mV increments and then a 50-ms step from −80 to +10 mV to assess the remaining current. Currents from the activating voltage pulse were normalized to the peak value of the test pulse following the −130 mV step and fit to a Boltzman equation to obtain the V1/2. Roscovitine (Sigma-Aldrich) was prepared as a 100 mM stock in dimethyl sulfoxide and diluted to the indicated working concentrations. […]. Compounds of Formula (I) were diluted first into dimethyl sulfoxide and then into 10% pluronic F-127 in water (Life Technologies), sonicated for 1 min and diluted into EC buffer. Vehicle controls were run in parallel in all experiments.
Unless otherwise indicated, statistics for comparing among electrophysiological results utilized a one-way analysis of variance with Fisher's least squares determination test for pair-wise comparison.

Where [2] appears, read: high frequency (15th pulse of train, 5 Hz), read-out: QPatch at High Frequency % Inhibition.
Setting [3] is: low frequency (1st pulse of train), read-out: QPatch at Low Frequency % Inhibition.

pIC50: −log10 of the molar value. Where two headings read alike, the source gives them in different places.

T1 sequence (Q00975 whole entry): as the sequence (Q00975 whole entry) above
T1 sequence (P54284 whole entry partner): as the sequence (P54284 whole entry partner) above
T1 sequence (P54289 25-956 partner limits assumed): as the sequence (P54289 25-956 partner limits assumed) above
T1 sequence (P54289 957-1103 partner limits assumed): as the sequence (P54289 957-1103 partner limits assumed) above

The term pIC50 denotes the negative decadic logarithm of the IC50, by convention in mol/L. The inhibition is the drop in the measured response relative to a control, in per cent. For the compound `CCOc1ccccc1-n1nc2c(c1-c1ccc(Cl)cc1)CN(S(=O)(=O)C1CCCCC1)C2` [Cpd 52, 3-(4-Chlorophenyl)-5-(cyclohexylsulfonyl)-2-(2-ethoxyphenyl)-2,4,5,6-tetrahydropyrrolo[3,4-c]pyrazole], in assay [1], the pIC50 is 8.70. The inhibition at 0.1 µM on N-type calcium channel (setting [2]) worked out at 50%; at N-type calcium channel (setting [3]), 40%.
Turning to `COc1cc(Cl)ccc1-n1nc2c(c1-c1ccc(Cl)cc1)CN(S(=O)(=O)C(C)C)C2` [Cpd 64, 2-(4-Chloro-2-methoxyphenyl)-3-(4-chlorophenyl)-5-[(1-methylethyl)sulfonyl]-2,4,5,6-tetrahydropyrrolo[3,4-c]pyrazole], in assay [1], the inhibition at 0.33 µM was found to be 86% and the pIC50 is 7.48. The inhibition at 0.1 µM at N-type calcium channel (setting [2]) came out at 24%. At N-type calcium channel (setting [3]), the inhibition at 0.1 µM came out at 12%.
Turning to `COC(=O)C1CCN(S(=O)(=O)N2Cc3nn(-c4ccccc4OC)c(-c4ccc(Cl)cc4)c3C2)CC1` [Cpd 58, Methyl 1-{[3-(4-chlorophenyl)-2-(2-methoxyphenyl)-2,6-dihydropyrrolo[3,4-c]pyrazol-5(4H)-yl]sulfonyl}piperidine-4-carboxylate], the pIC50 in assay [1] is 8.30. For the same compound, the figures for the inhibition at 0.1 µM on N-type calcium channel (setting [2]) and at N-type calcium channel (setting [3]) were 52% and 53%, respectively.
The corresponding values for `COc1ccccc1-n1nc2c(c1-c1ccc(Cl)cc1)CN(S(=O)(=O)N1CCCC1)C2` [Cpd 60, 3-(4-Chlorophenyl)-2-(2-methoxyphenyl)-5-(pyrrolidin-1-ylsulfonyl)-2,4,5,6-tetrahydropyrrolo[3,4-c]pyrazole] are 8.70, 44% and 29%.
With `CS(=O)(=O)N1Cc2nn(-c3ccccc3OC(F)(F)F)c(-c3ccc(Cl)cc3)c2C1` [Cpd 20, 3-(4-Chlorophenyl)-5-(methylsulfonyl)-2-[2-(trifluoromethoxy)phenyl]-2,4,5,6-tetrahydropyrrolo[3,4-c]pyrazole], the pIC50 in assay [1] is 7.40. The inhibition at 1 µM on N-type calcium channel (setting [2]) was found to be 30%; at N-type calcium channel (setting [3]) it was 5%.
For the compound `CCc1ccccc1-n1nc2c(c1-c1ccc(Cl)cc1)CN(C(=O)c1ccncc1)C2` [Cpd 5, 3-(4-Chlorophenyl)-2-(2-ethylphenyl)-5-(pyridin-4-ylcarbonyl)-2,4,5,6-tetrahydropyrrolo[3,4-c]pyrazole], in assay [1], the pIC50 is 6.70. For the same compound, at N-type calcium channel (setting [2]), the inhibition at 0.25 µM turned out to be 12% and the inhibition at 1 µM is 37%. Also, on N-type calcium channel (setting [3]), the inhibition at 0.25 µM came to 0% and the inhibition at 1 µM came to 11%.
`CC(C)S(=O)(=O)N1Cc2nn(-c3cccc4c3OCC4)c(-c3ccc(Cl)cc3)c2C1` [Cpd 84, 3-(4-Chlorophenyl)-2-(2,3-dihydro-1-benzofuran-7-yl)-5-[(1-methylethyl)sulfonyl]-2,4,5,6-tetrahydropyrrolo[3,4-c]pyrazole]: in assay [1], the inhibition at 0.33 µM is 94%. In addition, the pIC50 in assay [1] was 8.00. For the same compound, the inhibition at 0.1 µM at N-type calcium channel (setting [2]) was 7%; on N-type calcium channel (setting [3]) it was -3%.
Regarding `CCc1ccccc1-n1nc2c(c1-c1ccc(Cl)cc1)CN(C(=O)CNC(=O)OC(C)(C)C)C2` [Cpd 11, tert-Butyl{2-[3-(4-chlorophenyl)-2-(2-ethylphenyl)-2,6-dihydropyrrolo[3,4-c]pyrazol-5 (4H)-yl]-2-oxoethyl}carbamate], the pIC50 in assay [1] was 7.00. Besides, at N-type calcium channel (setting [2]), the inhibition at 0.25 µM was 31% and the inhibition at 1 µM is 68%. At N-type calcium channel (setting [3]), the inhibition at 0.25 µM stood at 14% and the inhibition at 1 µM is 37%.
Consider `COc1cc(Cl)ccc1-n1nc2c(c1-c1ccc(Cl)cc1)CN(S(=O)(=O)N(C)C)C2` [Cpd 65, 2-(4-Chloro-2-methoxyphenyl)-3-(4-chlorophenyl)-N,N-dimethyl-2,6-dihydropyrrolo[3,4-c]pyrazole-5(4H)-sulfonamide], for which the inhibition at 0.33 µM in assay [1] was found to be 74%. Besides, the pIC50 in assay [1] was 6.82. Also, the figures for the inhibition at 0.1 µM at N-type calcium channel (setting [2]) and at N-type calcium channel (setting [3]) were 1% and -8%, respectively.
As for `CCS(=O)(=O)N1Cc2nn(-c3ccccc3N(C)C)c(-c3ccc(Cl)cc3)c2C1` [Cpd 89, 2-[3-(4-Chlorophenyl)-5-(ethylsulfonyl)-5,6-dihydropyrrolo[3,4-c]pyrazol-2(4H)-yl]-N,N-dimethylaniline], in assay [1], the inhibition at 0.33 µM turned out to be 90%. In addition, the pIC50 in assay [1] was 7.55. Also, the inhibition at 0.1 µM on N-type calcium channel (setting [2]) came out at 34%; on N-type calcium channel (setting [3]) it was 10%.
For the compound `COC(=O)CCS(=O)(=O)N1Cc2nn(-c3ccccc3OC(F)(F)F)c(-c3ccc(Cl)cc3)c2C1` [Cpd 47, Methyl 3-{[3-(4-chlorophenyl)-2-[2-(trifluoromethoxy)phenyl]-2,6-dihydropyrrolo[3,4-c]pyrazol-5(4H)-yl]sulfonyl}propanoate], the pIC50 in assay [1] was 7.51. Also, the inhibition at 0.1 µM on N-type calcium channel (setting [2]) amounted to 36%; at N-type calcium channel (setting [3]), 8%.
For `CCOc1ccccc1-n1nc2c(c1-c1ccc(Cl)cc1)CN(S(=O)(=O)N(C)C)C2` [Cpd 54, 3-(4-Chlorophenyl)-2-(2-ethoxyphenyl)-N,N-dimethyl-2,6-dihydropyrrolo[3,4-c]pyrazole-5(4H)-sulfonamide] the same measures were 8.70, 46% and 36%.
As for `COc1ccccc1-n1nc2c(c1-c1ccc(Cl)cc1)CN(S(=O)(=O)N1CCC(C)CC1)C2` [Cpd 57, 3-(4-Chlorophenyl)-2-(2-methoxyphenyl)-5-[(4-methylpiperidin-1-yl)sulfonyl]-2,4,5,6-tetrahydropyrrolo[3,4-c]pyrazole], the inhibition at 0.33 µM in assay [1] worked out at 95%. The pIC50 in assay [1] is 8.10. The results for the inhibition at 1 µM on N-type calcium channel (setting [2]) and on N-type calcium channel (setting [3]) were 82% and 69%, respectively.

The record behind these values is patent US8846949B2, “Pyrrolopyrazoles as N-type calcium channel blockers” (Janssen Pharmaceutica NV, priority 2012, dated 2014).
